Laboratory results reported in ChEMBL document CHEMBL3045398, “Fungicidal activities of cyflufenamid against various plant-pathogenic fungi” (J Pestic Sci, 2006).
The source made the active and inactive calls. The calls are words filed in the database; no cut-off is given here.

Columns and labels:
[1] = system: Phytophthora infestans; assay: Fungicidal activity against Phytophthora infestans assessed as inhibition of mycelial growth measured after 3 to 20 days by agar dilution method; assay type: functional, organism-based
[2] = system: Blumeria graminis f. sp. tritici; assay: Fungicidal activity against Blumeria graminis f. sp. tritici on wheat leaves assessed as rate of appressorium formation measured at 3.1 ppm after 76 hr; assay type: functional
[3] = system: Fulvia fulva; assay: Fungicidal activity against Fulvia fulva assessed as inhibition of mycelial growth measured after 3 to 20 days by agar dilution method; assay type: functional, organism-based
[4] = system: Cercospora kikuchii; assay: Fungicidal activity against Cercospora kikuchii assessed as inhibition of mycelial growth measured after 3 to 20 days by agar dilution method; assay type: functional, organism-based
[5] = system: Botryosphaeria; assay: Fungicidal activity against Botryosphaeria sp. assessed as inhibition of mycelial growth measured after 3 to 20 days by agar dilution method; assay type: functional, organism-based
[6] = system: Blumeria graminis f. sp. tritici; assay: Fungicidal activity against Blumeria graminis f. sp. tritici on wheat leaves assessed as rate of appressorium formation measured at 0.2 ppm after 168 hr; assay type: functional
[7] = system: Pythium aphanidermatum; assay: Fungicidal activity against Pythium aphanidermatum assessed as inhibition of mycelial growth measured after 3 to 20 days by agar dilution method; assay type: functional, organism-based
[8] = system: Blumeria graminis f. sp. tritici; assay: Fungicidal activity against Blumeria graminis f. sp. tritici on wheat leaves assessed as colony formation measured at 12.5 ppm; assay type: functional
[9] = system: Blumeria graminis f. sp. tritici; assay: Fungicidal activity against Blumeria graminis f. sp. tritici on wheat leaves assessed as rate of spore germination measured at 12.5 ppm after 6 hr (reference value: 49.8 +/- 17.3%); assay type: functional
[10] = system: Blumeria graminis f. sp. tritici; assay: Fungicidal activity against Blumeria graminis f. sp. tritici on wheat (Triticum aestivum, cv. Chihoku) assessed as powdery mildew disease control at 3.1 ppm measured after 5 to 10 days; assay type: functional
[11] = system: Blumeria graminis f. sp. tritici; assay: Fungicidal activity against Blumeria graminis f. sp. tritici on wheat leaves assessed as spore formation measured at 3.1 ppm; assay type: functional
[12] = system: Blumeria graminis f. sp. tritici; assay: Fungicidal activity against Blumeria graminis f. sp. tritici on wheat leaves assessed as rate of spore germination measured at 12.5 ppm after 24 hr (reference value: 72.2 +/- 4.2%); assay type: functional
[13] = system: Monilinia fructicola; assay: Fungicidal activity against Monilinia fructicola assessed as rounded hyphae and various size vessicles measured by Transmission electron microscopy; assay type: functional, organism-based
[14] = system: Pyricularia oryzae; assay: Fungicidal activity against Magnaporthe oryzae assessed as inhibition of mycelial growth measured after 3 to 20 days by agar dilution method; assay type: functional, organism-based
[15] = system: Trichoderma viride; assay: Fungicidal activity against Hypocrea rufa assessed as inhibition of mycelial growth measured after 3 to 20 days by agar dilution method; assay type: functional, organism-based
[16] = system: Discula theae-sinensis; assay: Fungicidal activity against Discula theae-sinensis assessed as inhibition of mycelial growth measured after 3 to 20 days by agar dilution method; assay type: functional, organism-based, Sinodiscula theae-sinensis
[17] = system: Cladosporium cucumerinum; assay: Fungicidal activity against Cladosporium cucumerinum assessed as inhibition of mycelial growth measured after 3 to 20 days by agar dilution method; assay type: functional, organism-based
[18] = system: Blumeria graminis f. sp. tritici; assay: Fungicidal activity against Blumeria graminis f. sp. tritici on wheat leaves assessed as rate of appressorium formation measured at 12.5 ppm after 168 hr; assay type: functional
[19] = system: Blumeria graminis f. sp. tritici; assay: Fungicidal activity against Blumeria graminis f. sp. tritici on wheat leaves assessed as spore formation measured at 0.8 ppm; assay type: functional
[20] = system: Fusarium graminearum; assay: (§1) Fungicidal activity against Fusarium graminearum assessed as inhibition of mycelial growth measured after 3 to 20 days by agar dilution method; assay type: functional, organism-based
[21] = system: Blumeria graminis f. sp. tritici; assay: Fungicidal activity against Blumeria graminis f. sp. tritici on wheat (Triticum aestivum, cv. Chihoku) assessed as powdery mildew disease control at 0.2 ppm measured after 5 to 10 days; assay type: functional
[22] = system: Penicillium italicum; assay: Fungicidal activity against Penicillium italicum assessed as inhibition of mycelial growth measured after 3 to 20 days by agar dilution method; assay type: functional, organism-based
[23] = system: Monilinia fructicola; assay: Fungicidal activity against Monilinia fructicola assessed as large septa measured by Transmission electron microscopy; assay type: functional, organism-based
[24] = system: Sclerotinia sclerotiorum; assay: Fungicidal activity against Sclerotinia sclerotiorum assessed as inhibition of mycelial growth measured after 3 to 20 days by agar dilution method; assay type: functional, organism-based
[25] = system: Blumeria graminis f. sp. tritici; assay: Fungicidal activity against Blumeria graminis f. sp. tritici on wheat (Triticum aestivum, cv. Chihoku) assessed as powdery mildew disease control at 200 ppm measured after 5 to 10 days; assay type: functional
[26] = system: Podosphaera fusca; assay: Fungicidal activity against Sphaerotheca cucurbitae in cucumber assessed as powdery mildew disease control measured after 7 to 10 days by pot test; assay type: functional
[27] = system: Blumeria graminis f. sp. tritici; assay: Fungicidal activity against Blumeria graminis f. sp. tritici in wheat assessed as powdery mildew disease control measured after 7 to 10 days by pot test; assay type: functional
[28] = system: Alternaria alternata; assay: Fungicidal activity against Alternaria alternata apple pathotype assessed as inhibition of mycelial growth measured after 3 to 20 days by agar dilution method; assay type: functional, organism-based
[29] = system: Plasmopara viticola; assay: Fungicidal activity against Plasmopara viticola on grape (Vitis vinifera, cv.Kousyu) assessed as downy mildew disease control at 200 ppm measured after 5 to 10 days; assay type: functional
[30] = system: Blumeria graminis f. sp. tritici; assay: Fungicidal activity against Blumeria graminis f. sp. tritici on wheat leaves assessed as rate of appressorium formation measured at 12.5 ppm after 24 hr (reference value: 89.7 +/- 4%); assay type: functional
[31] = system: Helicobasidium mompa; assay: Fungicidal activity against Helicobasidium mompa assessed as inhibition of mycelial growth measured after 3 to 20 days by agar dilution method; assay type: functional, organism-based
[32] = system: Podosphaera leucotricha; assay: Fungicidal activity against Podosphaera leucotricha in apple assessed as powdery mildew disease control measured after 7 to 10 days by pot test; assay type: functional
[33] = system: Cercospora beticola; assay: Fungicidal activity against Cercospora beticola assessed as inhibition of mycelial growth measured after 3 to 20 days by agar dilution method; assay type: functional, organism-based
[34] = system: Podosphaera aphanis; assay: Fungicidal activity against Podosphaera aphanis var. aphanis in strawberry assessed as powdery mildew disease control measured after 7 to 10 days by pot test; assay type: functional
[35] = system: Blumeria graminis f. sp. tritici; assay: Fungicidal activity against Blumeria graminis f. sp. tritici on wheat leaves assessed as colony formation measured at 3.1 ppm; assay type: functional
[36] = system: Blumeria graminis f. sp. tritici; assay: Fungicidal activity against Blumeria graminis f. sp. tritici on wheat leaves assessed as rate of appressorium formation measured at 12.5 ppm after 6 hr (reference value: 3.5 +/- 2.5%); assay type: functional
[37] = system: Blumeria graminis f. sp. tritici; assay: Fungicidal activity against Blumeria graminis f. sp. tritici on wheat leaves assessed as spore formation measured at 12.5 ppm; assay type: functional
[38] = system: Diaporthe citri; assay: Fungicidal activity against Diaporthe citri assessed as inhibition of mycelial growth measured after 3 to 20 days by agar dilution method; assay type: functional, organism-based
[39] = system: Blumeria graminis f. sp. tritici; assay: Fungicidal activity against Blumeria graminis f. sp. tritici on wheat leaves assessed as rate of appressorium formation measured at 12.5 ppm after 76 hr; assay type: functional
[40] = system: Fusarium graminearum; assay: as §1; assay type: functional, organism-based; remark: listed apart in the source
[41] = system: Taphrina deformans; assay: Fungicidal activity against Taphrina deformans assessed as inhibition of mycelial growth measured after 3 to 20 days by agar dilution method; assay type: functional, organism-based
[42] = system: Phomopsis; assay: Fungicidal activity against Phomopsis sp. assessed as inhibition of mycelial growth measured after 3 to 20 days by agar dilution method; assay type: functional, organism-based

Structure (SMILES): O=C(Cc1ccccc1)N/C(=N\OCC1CC1)c1c(C(F)(F)F)ccc(F)c1F [CYFLUFENAMID]
- EC50 [1]: > 100 ppm
- inhibition at 3.1 ppm [2]: 99.4%
- EC50 [3]: > 100 ppm
- EC50 [4]: 1 ppm
- EC50 [5]: 0.07 ppm
- inhibition at 0.2 ppm [6]: 80.1%
- EC50 [7]: > 100 ppm
- inhibition at 12.5 ppm [8]: 100%
- Activity [9]: 47.6%
- Efficacy [10]: 100%
- inhibition at 3.1 ppm [11]: 100%
- Activity [12]: 61.5%
- Activity [13]: Active
- EC50 [14]: 3 ppm
- EC50 [15]: > 100 ppm
- EC50 [16]: > 100 ppm
- EC50 [17]: > 100 ppm
- inhibition at 12.5 ppm [18]: 100%
- inhibition at 0.8 ppm [19]: 100%
- EC50 [20]: > 100 ppm
- Efficacy [21]: 66%
- EC50 [22]: 7 ppm
- Activity [23]: Active
- EC50 [24]: 1 ppm
- Efficacy [25]: 100%
- MIC [26]: < 0.8 µg/mL
- MIC [27]: < 0.8 µg/mL
- EC50 [28]: > 100 ppm
- Efficacy [29]: 0%
- Activity [30]: 87.9%
- EC50 [31]: > 100 ppm
- MIC [32]: < 1.6 µg/mL
- EC50 [33]: 0.3 ppm
- MIC [34]: < 0.8 µg/mL
- inhibition at 3.1 ppm [35]: 100%
- Activity [36]: 0.4%
- inhibition at 12.5 ppm [37]: 100%
- EC50 [38]: 6 ppm
- inhibition at 12.5 ppm [39]: 100%
- EC50 [40]: > 100 ppm
- EC50 [41]: 3 ppm
- EC50 [42]: > 100 ppm
